Experimental data published in patent US9963684B2 (priority 2014, dated 2018).
Values joined by “and” are separate entries in the source; they are usually repeats but may differ in a detail not shown here. Equal values may be shown once. Read-outs that look alike come from different tables or passages of the source.

Test system: formaldehyde dehydrogenase
Type: biochemical, Burkholderia multivorans
[1] = metal ion 1 mM in enzyme reaction solution
[2] = metal ion 5 mM in enzyme reaction solution

Structure (SMILES) | Relative activity (%) [1] [%] | Relative activity (%) [2] [%] | Relative activity (%) | enzyme activity in the presence of metal ion versus without it (5 frill Mg^2+) [times]
[Ba+2].[Cl-].[Cl-] [BaCl2] | 98.55 | 115.1 |  | 
[Ca+2].[Cl-].[Cl-] [CaCl2] | 50.67 | 75.96 |  | 
[Cl-].[Cl-].[Co+2] [CoCl2] |  |  | 58.39% and 72.60% | 
O=S(=O)([O-])[O-].[Cu+2] [CuSO4] | 124.3 | 91.30 |  | 
[Cl-].[K+] [KCl] | 104.0 | 94.49 |  | 
[Cl-].[Cl-].[Mg+2] [MgCl2] | 147.8 | 269.6 |  | 2.7
[Cl][Mn][Cl] [MnCl2] | 62.32 | 111.6 |  | 
[Cl-].[Cl-].[Zn+2] [ZnCl2] | 63.99 | 192.2 |  | 
